Assay results as given in the NIST ThermoML archive (doi:10.1016/j.jct.2012.03.014).

Experiment: cn = amount concentration of the nth substance listed, in mol/dm3
Conditions: 298.15 K, 101 kPa, Liquid, Taylor dispersion method

SMILES: CC(=O)Nc1ccc(O)cc1 [N-acetyl-p-aminophenol] + O
- binary diffusion coefficient (c1 = 0.001): 6.63e-10 m2/s
- binary diffusion coefficient (c1 = 0.003): 6.59e-10 m2/s
- binary diffusion coefficient (c1 = 0.005): 6.54e-10 m2/s
- binary diffusion coefficient (c1 = 0.01): 6.5e-10 m2/s
- binary diffusion coefficient (c1 = 0.03): 6.29e-10 m2/s
- binary diffusion coefficient (c1 = 0.05): 6.21e-10 m2/s
